EPA's ToxValDB 9.5 (doi:10.2903/j.efsa.2006.82r)
≈ marks a conversion by molar mass, not a printed value.

Experiments:
Bird = conditions: acute; oral; unspecified; mortality
Trichogramma cacoeciae = conditions: not reported; mortality
Anas platyrhynchos = conditions: for LD50: oral, mortality
Colinus virginianus = conditions: for LD50: acute, oral, mortality
Apis mellifera = conditions: acute; duration: 48 hours; oral; unspecified; mortality
Canidae = conditions: oral, Dog Other, organ weight

## COc1ccc(C(=CC(=O)N2CCOCC2)c2ccc(Cl)cc2)cc1OC [Dimethomorph]
Bird
  LD50: 3900 mg/kg
Trichogramma cacoeciae
  LEL: 115 g/ha
Anas platyrhynchos; acute, unspecified
  LD50: > 2000 mg/kg
Anas platyrhynchos; reproductive
  NOEL: 78.4 mg/kg-day
Anas platyrhynchos; short-term, feed
  LD50: > 938 mg/kg-day
Oncorhynchus mykiss; acute, duration: 96 hours, mortality
  LC50: 3.4 mg/L (≈ 8.77 µM)
Oncorhynchus mykiss; chronic/long-term, duration: 96 days, development
  NOEC: 0.056 mg/L
Tagia sp.; acute, duration: 14 days, mortality
  LC50: > 1000 mg/kg
Tagia sp.; chronic/long-term, duration: 8 weeks, reproduction
  NOEC: ≥ 120 mg/kg
Colinus virginianus; diet
  LD50: > 728 mg/kg-day
Colinus virginianus
  LD50: > 2000 mg/kg
Colinus virginianus; reproduction developmental
  NOEL: 58.4 mg/kg-day
Apis mellifera
  LD50: > 32.4 µg/piece
Canidae; chronic, duration: 1 years, M/F
  NOAEL: 4.9 mg/kg-day
Canidae; subchronic, duration: 90 days
  NOAEL: 15 mg/kg-day
Rattus norvegicus; developmental, development
  NOAEL: 60 mg/kg-day
Rattus norvegicus; subchronic, duration: 90 days, oral
  NOAEL: 16 mg/kg-day
